Where two headings read alike, the source gives them in different places.
Experiments:
[1] = molecular target: T1, oxytocin receptor (Homo sapiens, UniProt P30559); assay: IP-One IP1 accumulation assay in CHO cell lines expressing oxytocin receptor (agonist activation); type: cell-based; conditions: n=3; for Emax: CHO, percentage of the endogenous agonist maximal stimulation, read-out: OT-R Emax
T1 construct: expressed in transfected cells; host or cells: CHO cell lines
T1 sequence (P30559 1-389): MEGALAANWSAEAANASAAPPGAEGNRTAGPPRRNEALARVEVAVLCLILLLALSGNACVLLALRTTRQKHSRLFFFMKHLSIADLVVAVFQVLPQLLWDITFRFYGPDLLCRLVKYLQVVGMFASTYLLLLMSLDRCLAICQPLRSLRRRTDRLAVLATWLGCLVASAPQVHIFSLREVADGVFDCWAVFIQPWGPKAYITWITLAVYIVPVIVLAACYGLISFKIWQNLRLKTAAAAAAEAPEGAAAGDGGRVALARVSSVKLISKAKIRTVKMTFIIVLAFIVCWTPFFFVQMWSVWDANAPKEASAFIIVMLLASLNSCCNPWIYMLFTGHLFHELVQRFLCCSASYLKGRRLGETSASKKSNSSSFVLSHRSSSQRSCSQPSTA
Protocol: The activation constants (EC50 in nM) were measured in CHO cell lines expressing oxytocin receptor by IP-One IP1 accumulation assay. These values are the mean ± SEM of at least three separate experiments performed in triplicate. […] When there is only a weak stimulation, results are expressed as percentages of the endogenous agonist maximal stimulation at [ligand] = 1 µM (n = 2). Results are not significant (ns) when there is <10% response at [ligand] = 1 µM (n = 2).

[2] = in vivo; cited from earlier work
[3] = molecular target: V1A-R (Homo sapiens, UniProt P37288); assay: V1A receptor antagonist assay measured as calcium signal; type: cell-based; conditions: n=3; for Ratio V1A/OT: V1A-R IC50 / OT-R EC50; for IC50: antagonist, calcium signal, read-out: V1A-R (Antago) IC50
Excerpt: Comparison of efficacy as OT receptor agonist (measured as described in example 2), or as VIA receptor antagonist (measured as calcium signal, as follows), has been performed.

[4] = CHO cell lines expressing oxytocin receptor, IP1 accumulation, read-out: OT-R EC50
[5] = selectivity table, measured as described in example 2, read-out: OT-R (Ago) EC50

V1A-R, sequence (P37288 whole entry, species assumed): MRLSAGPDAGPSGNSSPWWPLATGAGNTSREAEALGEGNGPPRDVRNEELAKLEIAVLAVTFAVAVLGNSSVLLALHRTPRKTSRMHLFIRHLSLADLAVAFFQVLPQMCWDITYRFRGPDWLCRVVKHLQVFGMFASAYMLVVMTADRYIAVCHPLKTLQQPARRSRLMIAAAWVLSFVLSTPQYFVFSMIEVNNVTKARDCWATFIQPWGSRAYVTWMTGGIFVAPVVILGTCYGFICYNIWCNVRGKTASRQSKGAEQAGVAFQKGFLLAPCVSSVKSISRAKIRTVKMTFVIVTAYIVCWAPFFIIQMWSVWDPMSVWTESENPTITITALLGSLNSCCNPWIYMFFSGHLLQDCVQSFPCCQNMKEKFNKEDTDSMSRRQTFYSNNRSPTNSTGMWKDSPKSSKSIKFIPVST

Compound	Emax [1]	EC50 [1, 4]	half-life in blood [2]	EC50 [1, 5]	Ratio V1A/OT [3]	IC50 [3]
Cc1cc(C(=O)N2Cc3cnn(C)c3Nc3ccccc32)ccc1CNC(=O)N1C[C@H](n2cc(CN)nn2)C[C@H]1C(=S)N(C)C [Compound 8]	120%	0.033 µM				
oxytocin [OT]			about 3 minutes			
Cc1cc(C(=O)N2Cc3cnn(C)c3Nc3ccccc32)ccc1CNC(=O)N1C[C@H](n2cc(COCCOCCO)nn2)C[C@H]1C(=S)N(C)C [Compound 14]		0.01 µM				
Cc1cc(C(=O)N2Cc3cnn(C)c3Nc3ccccc32)ccc1CNC(=O)N1C[C@@H](n2cc(CO)nn2)C[C@H]1C(=S)N(C)C [Compound 6]	100%	0.0007 µM		0.00112 µM	117	0.131 µM
Cc1cc(C(=O)N2Cc3cnn(C)c3Nc3ccccc32)ccc1CNC(=O)N1CCC[C@H]1C(=S)N(C)C [Reference, reference compound]	96.7%	0.0451 µM		0.0451 µM	7.7	0.346 µM
CCCc1cn([C@@H]2C[C@@H](C(=S)N(C)C)N(C(=O)NCc3ccc(C(=O)N4Cc5cnn(C)c5Nc5ccccc54)cc3C)C2)nn1 [Compound 19]		0.031 µM				
Cc1cc(C(=O)N2Cc3cnn(C)c3Nc3ccccc32)ccc1CNC(=O)N1C[C@H](N=[N+]=[N-])C[C@H]1C(=S)N(C)C [Compound 2]	80%	0.0391 µM				

Reference: patent publication EP4378525A1, “NON PEPTIDERGIC AGONISTS OF OXYTOCIN RECEPTOR” (Université de Strasbourg, priority 2022, dated 2024)
